Assay: in vitro
Conditions: human, hela cells, % viability

Compound	viability at 28.5 h, 10 µM [%]
O=C(CCS(=O)(=O)Cc1ccccc1)Nc1cc(C(F)(F)F)ccc1Cl [CBK268399]	108
O=C(O)c1ccc(Cl)c2c1C1C=CCC1C(c1ccc(S(=O)(=O)N3CCOCC3)cc1)N2 (stereo not drawn) [CBK268401]	108
Oc1ccccc1Nc1nc(NC2CCCC2)c2ccccc2n1 [CBK268402C]	84.8
CCOc1ccccc1Nc1c([N+](=O)[O-])nn(-c2ccc(OC)cc2)[n+]1[O-] [CBK268411]	90.2
O=c1cc(-c2ccccc2)nc(SCc2nc(-c3cccs3)no2)[nH]1 [CBK268416]	107
Cc1ccc(C(=O)N(Cc2nc(-c3ccc(Cl)cc3)no2)C(C)C)cc1[N+](=O)[O-] [CBK268422]	98.7
CN(C)S(=O)(=O)N(CC(=O)N1CCN(Cc2ccccc2)CC1)c1ccccc1 [CBK268423]	112
Cn1c(Cc2ccc(Cl)cc2)nnc1SCc1nc2ccccc2c(=O)n1-c1cccc(C(F)(F)F)c1 [CBK268425]	112
CN(C)CCNC(=O)CSc1ccccc1 [CBK268426]	98.6
O=C(COc1ccc(S(=O)(=O)Nc2ccc(Cl)cc2)cc1)Nc1ccccc1F [CBK268427]	108
COc1ccccc1-c1nnc2sc(-c3cnccn3)nn12 [CBK268428]	100
O=C(NCCCc1nc2ccccc2[nH]1)c1ccccc1 [CBK268429]	96.9
COc1ccc(-n2nc([N+](=O)[O-])c(NCc3ccccn3)[n+]2[O-])cc1 [CBK268430]	96.3
CN1CCN(CC(=O)Nc2sc3c(c2C(=O)Nc2ccccc2)CCCC3)CC1 [CBK268431]	117
Cn1c(=O)n(C)c2cc(CNCc3cccnc3)ccc21 [CBK268432C]	99.1
c1ccc2c(c1)OCC(c1nn3c(Cn4cnc5ccccc54)nnc3s1)O2 (stereo not drawn) [CBK268436]	81.4
NC(=O)c1c(NC(=O)c2cnn3cccnc23)sc2c1CCCC2 [CBK268437]	87.8
CN(C)c1ccc(/C=C/c2noc(-c3ccccc3O)n2)cc1 [CBK268438]	109
COc1ccc(NS(=O)(=O)c2ccc3c(c2)oc(=O)c2cc(S(=O)(=O)Nc4ccc(OC)cc4)ccc23)cc1 [CBK268439]	104
COCCNC(=O)CC1Sc2ccccc2NC1=O (stereo not drawn) [CBK268443]	98.9
COc1ccc(S(=O)(=O)N(CC(=O)Nc2cccnc2)c2ccc(F)cc2)cc1 [CBK268445]	86.5

Compound	viability at 28.5 h, 10 µM [%]
c1ccc(OCc2nn3c(Cn4cnc5ccccc54)nnc3s2)cc1 [CBK268446]	99.2
CS(=O)(=O)N(CC(=O)NCc1ccccn1)c1ccc(C23CC4CC(CC(C4)C2)C3)cc1 [CBK268448]	106
O=C(CN1CCC(Cc2ccccc2)CC1)Nc1ccc(S(=O)(=O)N2CCOCC2)cc1 [CBK268451]	102
O=C(CSc1nnc(-c2cccs2)n1-c1ccccc1)c1c[nH]c2ccccc12 [CBK268452]	101
Cn1c(CCNC(=O)NC2CCCCC2)nc2cc([N+](=O)[O-])ccc21 [CBK268453]	95.7
COc1cc2nc(S)n(CCc3ccc(S(N)(=O)=O)cc3)c(=O)c2cc1OC [CBK268457]	84.4
CC(=O)NCCc1ccc(S(=O)(=O)N2CCN(Cc3ccccc3)CC2)cc1 [CBK268458]	94.8
COc1ccc(S(=O)(=O)N(C)CC(=O)O)c2ccccc12 [CBK268459]	105
CCN1CCN(C(=O)CN(CC)S(=O)(=O)c2ccc(Cl)cc2)CC1 [CBK268461]	88.4
COc1ccc(OC)c(NC(=O)CN2CCC(C(N)=O)(N3CCCCC3)CC2)c1 [CBK268462]	98.2
Nn1c(COc2ccccc2)nnc1SCC(=O)c1ccc2c(c1)CCCC2 [CBK268466]	100
N#Cc1c(NC(=S)NC(=O)c2ccc(-c3cccc([N+](=O)[O-])c3)o2)sc2c1CCCC2 [CBK268471]	92
O=C(CSCc1nc2ccccc2[nH]1)Nc1cccc(C(F)(F)F)c1 [CBK268474]	101
O=C(Cc1cccc2ccccc12)Nc1cc(C(=O)O)cc(C(=O)O)c1 [CBK268475]	94.4
COc1ccc(S(=O)(=O)NCCSCc2cccc(C)c2)cc1Cl [CBK268477]	100
CC(=O)NCCc1nc2cc(NC(=O)c3cccc([N+](=O)[O-])c3)ccc2n1C [CBK268478]	90.7
Cc1ccc(Cl)cc1NC(=O)c1cc(NC(=O)C2CC=CCC2C(=O)O)ccc1N1CCOCC1 (stereo not drawn) [CBK268479]	99.1
CN(C)S(=O)(=O)N(CC(=O)Nc1ccc2c(c1)OCO2)c1ccccc1 [CBK268481]	110
Cc1cc(C)n(-c2nc3cc(Cl)ccc3nc2NCc2ccc3c(c2)OCO3)n1 [CBK268482]	106
N=c1c2c(-c3ccccc3)c(-c3ccccc3)oc2ncn1CCCN1CCOCC1 [CBK268484]	92.6
Cc1ccc(NC(=O)CCCn2cc([N+](=O)[O-])cn2)cc1Cl [CBK268485]	76.6

Compound	viability at 28.5 h, 10 µM [%]
CN1CCN(c2ccccc2NC(=O)c2ccc3ccccc3c2)CC1 [CBK268486]	96.1
CS(=O)(=O)N1CCc2cc(S(=O)(=O)NCCc3c[nH]c4ccccc34)ccc21 [CBK268487]	101
NC(=O)C1(N2CCCCC2)CCN(CC(=O)Nc2ccccc2Sc2ccccc2)CC1 [CBK268488]	94.7
Cc1c(C(N)=O)sc2ncn(CCc3ccccc3)c(=O)c12 [CBK268492]	103
Cc1ccc(-c2noc(CSc3nnc(CCc4ccccc4)n3-c3ccccc3)n2)cc1 [CBK268493]	93.1
CS(=O)(=O)Nc1ccccc1C(=O)NCc1ccccn1 [CBK268494]	106
CC1CCCCN1S(=O)(=O)c1ccc(NC(=O)CCn2cnc3ccccc3c2=O)cc1 (stereo not drawn) [CBK268495]	95.5
O=C(CSc1nc2sc3c(c2c(=O)n1Cc1ccco1)CCC3)NCc1ccco1 [CBK268499]	101
O=C(CSCc1cccc2ccccc12)Nc1c[nH]c(=O)[nH]c1=O [CBK268500]	103
Cc1ccc(Cl)cc1NC(=O)c1cc([N+](=O)[O-])ccc1NCCN1C(=O)c2ccccc2C1=O [CBK268501]	99.5
COc1ccc(C)cc1S(=O)(=O)N1CCCC(C(=O)NCc2ccccn2)C1 (stereo not drawn) [CBK268503]	102
COc1ccc(S(=O)(=O)N(CCc2ccccc2)CC(=O)O)cc1C [CBK268505]	95
O=C(CSCc1ccc(Br)cc1)NCC1CCCO1 (stereo not drawn) [CBK268506]	87.3
COC(=O)c1cc(OC)c(OC)cc1NC(=S)N1CCC(C(N)=O)CC1 [CBK268507]	93.3
Cc1cc(C)n(-c2nc3ccccc3nc2N2CCN(S(=O)(=O)c3ccc(F)c(C)c3)CC2)n1 [CBK268508]	91.1
CSc1ccc(S(=O)(=O)NCCSCc2ccc(C)cc2)cc1 [CBK268510]	104
Cn1c(CCNC(=O)c2cccs2)nc2cc([N+](=O)[O-])ccc21 [CBK268511]	83
O=[N+]([O-])c1ccc2c(c1)oc1ccc(S(=O)(=O)N3CCCC3)cc12 [CBK268512]	107
CCOc1cc(CNCc2ccccn2)cc(Cl)c1OCC [CBK268516C]	106
Cc1ccc(S(=O)(=O)NCCSc2nc(-c3ccc([N+](=O)[O-])cc3)c[nH]2)cc1 [CBK268518]	97
Cc1ccc(C(C)C)c(OCC(=O)N2CCN(Cc3nc4cc([N+](=O)[O-])ccc4n3C)CC2)c1 [CBK268519]	106

Compound	viability at 28.5 h, 10 µM [%]
CN1CCN(c2ccccc2NC(=S)NC(=O)c2ccc(N3CCCCC3)c([N+](=O)[O-])c2)CC1 [CBK268520C]	121
Cc1ccc(NS(=O)(=O)c2cc(C(=O)N3CCN(Cc4ccc5c(c4)OCO5)CC3)ccc2C)cc1 [CBK268521]	102
Cc1ccc2nc(-c3ccccc3)cc(C(=O)NCCCn3ccnc3)c2c1 [CBK268526]	96.1
CC(=O)Nc1c(O)nc(SCC(=O)Nc2ccc(C(C)=O)cc2)[nH]c1=O [CBK268527]	106
CC1CCCCN1S(=O)(=O)c1ccc(NCCC(=O)c2ccc(Cl)cc2)cc1 (stereo not drawn) [CBK268529]	113
Cc1cc(NS(=O)(=O)c2ccc(OCCNS(C)(=O)=O)cc2)no1 [CBK268530]	102
O=C(COc1ccc(S(=O)(=O)N2CCOCC2)cc1)NCc1ccccc1 [CBK268533]	98.6
Cc1cc(C)n2nc(SCC(=O)O)nc2n1 [CBK268536]	111
O=C1c2ccccc2C(=O)N1CCCc1nc2c3c4c(sc3ncn2n1)CCCCC4 [CBK268540]	93.4
COc1cc(C(CC(=O)O)C(=O)O)c([N+](=O)[O-])cc1OC (stereo not drawn) [CBK268541]	96.9
O=C(CSCc1ccc(Cl)c(Cl)c1)Nc1cccnc1 [CBK268542]	112
O=C(CSCc1ccc(Br)cc1)Nc1cccnc1 [CBK268543]	104
N=c1c2c(-c3ccccc3)c(-c3ccccc3)n(Cc3ccco3)c2ncn1CCN1CCOCC1 [CBK268545]	93.5
Cc1ccc(-c2nc3ncccc3o2)cc1NC(=O)c1ccc(-c2cccc([N+](=O)[O-])c2)o1 [CBK268548]	90.7
CCCCNS(=O)(=O)c1ccc(OCC(=O)O)cc1 [CBK268550]	99.1
COc1cc(C2C3=C(CC(C)(C)CC3=O)Nc3ncnn32)ccc1OCC(=O)N1CCOCC1 (stereo not drawn) [CBK268551]	102
O=C(O)CSc1nnc2n(-c3ccccc3)c3ccccc3n12 [CBK268557]	106
CCc1c(C)nc(N)nc1N1N=C1SC(C(C)=O)C(C)=O [CBK268558]	99.4
CCC(c1nc2ccccc2c(=O)n1CCCn1ccnc1)N1C(=O)c2ccccc2C1=O (stereo not drawn) [CBK268560]	107
CCN1CCN(c2nc(N)c3ccccc3n2)CC1 [CBK268561C]	82.4

Same assay, conditions: human, hela cells, % viability, bulk resorufin, single well

Compound	viability at 28.5 h, 10 µM [%]
COC(=O)CC1(CC(=O)OC)C(=O)N(C)C(=O)N(C)C1=O [CBK268554]	98.5

From PMC12040169 (PLOS Biology, 2025)
